“Also recorded” adds a separate entry of the source.
Tests used:
[1] = tested on: rat liver Microsomes; experiment: Magnetometer detection of substrate metabolism by rat liver microsomes; conditions: for Magnetometer chart response to substrate, RLM / Magnetometer chart response to substrate, RLM + NADPH: rat liver microsomes 1 mg protein/ml; for Magnetometer chart response to substrate, RLM: no NADPH stated; for Magnetometer chart response to substrate, RLM + NADPH: NADPH present
[2] = tested on: pig liver chromatin; experiment: Magnetometer detection of substrate metabolism by pig liver chromatin
[3] = tested on: pig liver nuclei; experiment: Magnetometer detection of substrate response in pig liver nuclei; format: in vitro ADME; conditions: pig liver nuclei 1 mg protein/ml, without NADPH

Compound | Metabolized by rat liver Microsomes ([1]; NADPH-dependent) | Metabolized by pig liver chromatin ([2]; NADPH-dependent) | Metabolized by rat liver Microsomes ([1]; Non-NADPH-dependent) | other results
CNCCC(Oc1ccc(C(F)(F)F)cc1)c1ccccc1 (stereo not shown) [fluoxetine] | + |  |  | 
CN(C)CCC=C1c2ccccc2CCc2ccccc21 [amitryptyline] | + | + |  | 
C[C@]12CC[C@H]3[C@@H](CCC4=CC(=O)CC[C@@]43C)[C@@H]1CC[C@@H]2O [testosterone] | − | + |  | Magnetometer chart response to substrate, CHROM in presence of NADPH ([2]; chromatin from pig liver nuclei, NADPH present): CHROM. Response to TEST in presence of NADPH
CC(=O)[C@H]1CC[C@H]2[C@@H]3CCC4=CC(=O)CC[C@]4(C)[C@H]3CC[C@]12C [progresterone, progesterone] | + |  |  | 
NCCc1c[nH]cn1 [histamine] |  |  | + | Metabolized by pig liver chromatin ([2]; Non-NADPH-dependent): +
C[C@]12CC[C@@H]3c4ccc(O)cc4CC[C@H]3[C@@H]1CC[C@@H]2O [estridiol, β-estradiol] |  | − |  | 
Cc1c(N(C)C)c(=O)n(-c2ccccc2)n1C [aminopyrine] | + | − |  | 
C[C@]12CCC(=O)C=C1CC[C@@H]1[C@@H]2[C@@H](O)C[C@@]2(C)[C@H]1CC[C@]2(O)C(=O)CO [cortisol] | + | − |  | 
Nc1ncnc2c1ncn2[C@@H]1O[C@H](CO)[C@@H](O)[C@H]1O [adenosine] |  |  | + | Magnetometer chart response to substrate, RLM [1]: No further change in slope
N[C@@H](Cc1c[nH]cn1)C(=O)O [histidine] |  |  | + | Magnetometer chart response to substrate, PLN [3]: PLN. Response to HD.; Metabolized by pig liver chromatin ([2]; Non-NADPH-dependent): ++; Magnetometer chart response to substrate, CHROM ([2]; chromatin from pig liver nuclei 1 mg protein/ml, without NADPH, listed as HD): PBT (50) B 10 CHROM Response to HD; also recorded: PGT 100 CHROM (700) B. Response to HD; Magnetometer chart response to substrate, RLM + NADPH [1]: RLM + NADPH. Two response to HD, short latency in both.; Magnetometer chart response to substrate, RLM [1]: Enhanced slope
N[C@H](CO)Cc1c[nH]cn1 [histidinol] |  |  | + | Metabolized by pig liver chromatin ([2]; Non-NADPH-dependent): +
NCCCCN [putrescine] | + | + |  | Magnetometer chart response to substrate, PLN [3]: PLN. No response to PUTR until NADPH added.; Magnetometer chart response to substrate, RLM + NADPH [1]: Increased slope; Magnetometer chart response to substrate, RLM + NADPH ([1]; listed as PU): PU (10) NADPH (10) response seen at end of record; also recorded: Response to PU
Nc1ccccc1 [aniline] | + | − |  | 

Source: patent publication US7477053B2, “Detection of electromagnetic fields” (priority 1994, dated 2009)
